Assay results as given in patent US4906624A, “6-(((Substituted)pyridin-3-yl)alkyl)-and alkenyl)-tetrahydro-4-hydroxypyran-2-one inhibitors of cholesterol biosynthesis” (Warner-Lambert Company, priority 1988, dated 1990).
Structures can show the parent of a compound that is named as a salt.

Legend:
Cholesterol Synthesis = assay: AICS screen: inhibition of cholesterol synthesis in rats (plasma [14C]cholesterol after sodium [1-14C]-acetate); type: in vivo; details: Rattus norvegicus, 50 min, single dose, oral gavage, male Sprague-Dawley rats fed 5% cholestyramine, acetate one hour after drug, blood after 50 minutes
Method: The ability of compounds of the present invention to inhibit the biosynthesis of cholesterol was also measured by a method (designated AICS screen) which utilizes the procedure described by A. W. Alberts et al, Proc. Natl. Acad. Sci., (1980), 77, pp 3957-3961.
In this method male Sprague-Dawley rats (200 g body weight) previously fed 5% cholestyramine for three days were randomly divided into groups (N=5/group) and given a single dose of vehicle (controls) or compound by an oral gavage at the indicated doses. One hour after drug dosing, all rats were injected intraperitoneally with sodium[1-^14 C]-acetate (18.75 μCi/rat in 0.2 ml saline). After 50 minutes, blood samples were taken, plasma obtained by centrifugation, and plasma [^14 C]cholesterol measured after saponification and extraction.

[1] = tested on: sterol synthesis (cholesterol biosynthesis) in rat liver homogenate; assay: CSI screen: inhibition of sterol/cholesterol synthesis (14C-acetate incorporation into nonsaponifiable lipid) by rat liver homogenate; type: biochemical; details: one-hour period, rats fed 5% cholestyramine for four days, 60 min, read-out: CSI/IC50 (concentration required for 50% inhibition of sterol synthesis)
Method: The ability of compounds of the present invention to inhibit the biosynthesis of cholesterol was measured by a method (designated CSI screen) which utilizes the procedure described by R. E. Dugan, et al, Archiv. Biochem. Biophys., (1972), 152, 21-27. In this method, the level of HMG-CoA enzyme activity in standard laboratory rats is increased by feeding the rats a chow diet containing 5% cholestyramine for four days, after which the rats are sacrificed.
The rat livers are homogenized, and the incorporation of […] into nonsaponifiable lipid by the rat liver homogenate is measured. The micromolar concentration of compound required for 50% inhibition of sterol synthesis over a one-hour period is measured, and expressed as an IC50 value.

Compound	IC50 [1] [nM]	other results
CCOC(=O)c1c(C)nc(C)c(/C=C/[C@@H]2C[C@@H](O)CC(=O)O2)c1-c1ccc(F)cc1 (relative stereo) [Example 11, [4α,6β-(E)]-4-(4-fluorophenyl)-2,6-dimethyl-5-[2-(tetrahydro-4-hydroxy-6-oxo-2H-pyran-2-yl)ethenyl]-, ethyl ester, 3-pyridinecarboxylic acid]	–	change in vivo at 1.5 mg/kg (Cholesterol Synthesis; 1.5 mg/kg): -41%
C=Cc1c(C)nc(C(C)C)c(/C=C/[C@@H]2C[C@@H](O)CC(=O)O2)c1-c1ccc(F)cc1 (relative stereo) [Example 40, [4α,6β(E)]-6-[2-[5-ethenyl-4-(4-fluorophenyl)-6-methyl-2-(1-methylethyl)-3-pyidinyl]ethenyl]tetrahydro-4-hydroxy-2H-pyran-2-one]	–	change in vivo at 1 mg/kg (Cholesterol Synthesis): -68%
CCc1nc(CC)c(C(=O)OC)c(-c2ccc(F)cc2)c1/C=C/[C@@H](O)C[C@@H](O)CC(=O)O (relative stereo) [Example 35, [R*,S*-(E)]-5-(6-carboxy-3,5-dihydroxy-1-hexenyl)-2,6-diethyl-4-(4-fluorophenyl)-, methyl ester, 3-pyridinecarboxylic acid, monosodium salt]	44	–
Cc1cc(-c2ccc(F)cc2)c(/C=C/[C@@H](O)C[C@@H](O)CC(=O)O)c(C(F)(F)F)n1 (relative stereo) [Example 23, [R*,S*-(E)]-7-[4-(4-fluorophenyl)-6-methyl-2-(trifluoromethyl)-3,5-dihydroxy-6-heptenoic acid, monosodium salt]	50	–
Cc1cc(-c2ccccc2)c(/C=C/[C@@H]2C[C@@H](O)CC(=O)O2)c(C)n1 (relative stereo) [Example 2, [4α,6β(E)]-6-[2-(2,6-Dimethyl-4-phenyl-3-pyridinyl)ethenyl]tetrahydro-4-hydroxy-2H-pyran-2-one]	180	–
Cc1cc(-c2ccc(F)cc2)c(/C=C/[C@@H]2C[C@@H](O)CC(=O)O2)c(C)n1 (relative stereo) [Example 7, [4α,6β(E)]-6-[2-[4-(4-Fluorophenyl)-2,6-dimethyl-3-pyridinyl]ethenyl]tetrahydro-4-hydroxy-2H-pyran-2-one]	68	–
COC(=O)c1c(C(C)C)nc(C(C)C)c(/C=C/[C@@H](O)C[C@@H](O)CC(=O)O)c1-c1ccc(F)cc1 (relative stereo) [Example 14, [R*,S*-(E)]-5-(6-carboxy-3,5-dihydroxy-1-hexenyl)-4-(4-fluorophenyl)-2,6-bis-1-methylethyl)-, methyl ester-3-pyridinecarboxylic acid, sodium salt]	79	–
O=C1C[C@H](O)C[C@@H](/C=C/c2c(-c3ccc(F)cc3)cc(C(F)F)nc2C(F)(F)F)O1 (relative stereo) [Example 24]	–	change in vivo at 1 mg/kg (Cholesterol Synthesis): -54%
CC(C)c1cc(-c2ccc(F)cc2)c(/C=C/[C@@H]2C[C@@H](O)CC(=O)O2)c(C(C)C)n1 (relative stereo) [Example 15]	–	change in vivo at 1 mg/kg (Cholesterol Synthesis): -55%
CC(C)c1nc(-c2ccccc2)cc(-c2ccc(F)cc2)c1/C=C/[C@@H](O)C[C@@H](O)CC(=O)O (relative stereo) [Example 31, [R*,S*-(E)]-7-[2-[4-(4-fluorophenyl)-2-(1-methylethyl)-6-phenyl-3-pyridinyl]ethenyl]-3,5-dihydroxy-6-heptenoic acid, monosodium salt]	58	–
Cc1nccc(-c2ccccc2)c1CC[C@H]1C[C@H](O)CC(=O)O1 (relative stereo) [Example 4, trans-Tetrahydro-4-hydroxy-6-[2-(2-methyl-4-phenyl-3-pyridinyl)ethyl]-2H-pyran-2-one]	420	–
COc1c(C)nc(C(C)C)c(/C=C/[C@@H](O)C[C@@H](O)CC(=O)O)c1-c1ccc(F)cc1 (relative stereo) [Example 39, [R*,S*-(E)]-7-[4-(4-fluorophenyl)-5-methoxy-6-methyl-2-(1-methylethyl)-3-pyridinyl]-3,5-dihydroxy-6-heptenoic acid, monosodium salt]	8	–
CCCNC(=O)c1c(C(C)C)nc(C(C)C)c(/C=C/[C@@H](O)C[C@@H](O)CC(=O)O)c1-c1ccc(F)cc1 (relative stereo) [Example 33, [R*,S*-(E)]-7-[4-(4-fluorophenyl)-2,6-bis(1-methylethyl)-5-[(propylamino)carbonyl]-3-pyridinyl]-3,5-dihydroxy-6-heptenoic acid, monosodium salt]	20	–
CCc1nc(CC)c(CO)c(-c2ccc(F)cc2)c1/C=C/[C@@H](O)C[C@@H](O)CC(=O)O (relative stereo) [Example 37, [R*,S*-(E)]-7-[2,6-diethyl-4-(4-fluorophenyl)-5-(hydroxymethyl)-3-pyridinyl]-3,5-dihydroxy-6-heptenoic acid, monosodium salt]	24	–
Cc1nc(C)c(/C=C/[C@@H](O)C[C@@H](O)CC(=O)O)c(-c2ccc(F)cc2)c1C#N (relative stereo) [Example 6, [R*,S*(E)]-7-[5-Cyano-4-(4-fluorophenyl)-2,6-dimethyl-3-pyridinyl]-3,5-dihydroxy-6-heptenoic acid, sodium salt]	62	–
Cc1nccc(-c2ccccc2)c1/C=C/[C@@H]1C[C@@H](O)CC(=O)O1 (relative stereo) [Example 1, [4α,6β(E)]-Tetrahydro-4-hydroxy-6-[2-(2-methyl-4-phenyl-3-pyridinyl)ethenyl]-2H-pyran-2-one]	360	–
CC(C)c1cc(-c2ccc(F)cc2)c(/C=C/[C@@H](O)C[C@@H](O)CC(=O)O)c(C(C)C)n1 (relative stereo) [Example 16, [R*,S*(E)]-7-[4-(4-fluorophenyl)-2,6-bis(1-methylethyl)-3-pyridinyl]-3,5-dihydroxy-6-heptenoic acid, monosodium salt]	30	–
Cc1cc(C)c(/C=C/[C@@H](O)C[C@@H](O)CC(=O)O)c(-c2ccc(F)cc2)n1 (relative stereo) [Example 29, [R*,S*-(E)]-7-[2-(4-fluorophenyl)-4,6-dimethyl-3-pyridinyl]-3,5-dihydroxy-6-heptenoic acid, monosodium salt]	50	–
Cc1cc(-c2ccccc2)c(/C=C/[C@@H](O)C[C@@H](O)CC(=O)O)c(C)n1 (relative stereo) [Example 3, [R*,S*(E)]-7-(2,6-dimethyl-4-phenyl-3-pyridinyl)-3,5-dihydroxy-6-heptenoicacid, sodium salt]	230	–
Cc1cc(-c2ccc(F)cc2)c(/C=C/[C@@H](O)C[C@@H](O)CC(=O)O)c(C)n1 (relative stereo) [Example 8, [R*,S*(E)]-7-[4-(4-Fluorophenyl)-2,6-dimethyl-3-pyridinyl]-3,5-dihydroxy-6-heptenoic acid, sodium salt]	72	–
C=Cc1c(C)nc(C(C)C)c(/C=C/[C@@H](O)C[C@@H](O)CC(=O)O)c1-c1ccc(F)cc1 (relative stereo) [Example 41, [R*,S*-(E)]-7-[5-ethenyl-4-(4-fluorophenyl)-6-methyl-2-(1-methylethyl)-3-pyridinyl]-3,5-dihydroxy-6-heptenoic acid, monosodium salt]	11	–
COC(=O)c1c(C(C)C)nc(C)c(/C=C/[C@@H](O)C[C@@H](O)CC(=O)O)c1-c1ccc(F)cc1 (relative stereo) [Example 10, [R*,S*-(E)]-5-(6-carboxy-3,5-dihydroxy-1-hexenyl)-4-(4-fluorophenyl)-6-methyl-2-(1-methylethyl)-, 3-methyl ester, 3-pyridinecarboxylic acid, monosodium salt]	70	–
CCOC(=O)c1c(C)nc(C)c(/C=C/[C@@H](O)C[C@@H](O)CC(=O)O)c1-c1ccc(F)cc1 (relative stereo) [Example 12, [R*,S*-(E)]-5-(6-carboxy-3,5-dihydroxy-1-hexenyl)-4-(4-fluorophenyl)-2,6-dimethyl-, 3-ethyl ester, 3-pyridinecarboxylic acid, monosodium salt]	140	–
CCc1cc(-c2ccc(F)cc2)c(/C=C/[C@@H](O)C[C@@H](O)CC(=O)O)c(CC)n1 (relative stereo) [Example 27, [R*,S*-(E)]-7-[2,6-diethyl-4-4-(fluorophenyl)-3-pyridinyl]-3,5-dihydroxy-6-heptenoic acid, monosodium salt]	32	–
Cc1cc(-c2ccc(F)cc2)c(/C=C/[C@@H](O)C[C@@H](O)CC(=O)O)c(C(C)C)n1 (relative stereo) [Example 20, [R*,S*-(E)]-7-[4-(4-fluorophenyl)-6-methyl-2-(1-methylethyl)-3-pyridinyl-3,5-dihydroxy-6-heptenoic acid, sodium salt]	16	–
O=C(O)C[C@H](O)C[C@H](O)/C=C/c1c(-c2ccc(F)cc2)cc(C(F)F)nc1C(F)(F)F (relative stereo) [Example 25, [R*,S*-(E)]-7-[6-(difluoromethyl)-4-(4-fluorophenyl)-2-(trifluoromethyl)-3-pyridinyl]-3,5-dihydroxy-6-heptenoic acid, monosodium salt]	71	–
